Source: patent US20250034170A1, “SMALL MOLECULE MODULATORS OF GLUCOCEREBROSIDASE ACTIVITY AND USES THEREOF” (Vanqua Bio, Inc., priority 2021, published 2025)

Target: T1, GCase (Homo sapiens, UniProt P04062)
T1 construct: endogenous in cells; host or cells: HeLa cells
T1 sequence (P04062 40-536): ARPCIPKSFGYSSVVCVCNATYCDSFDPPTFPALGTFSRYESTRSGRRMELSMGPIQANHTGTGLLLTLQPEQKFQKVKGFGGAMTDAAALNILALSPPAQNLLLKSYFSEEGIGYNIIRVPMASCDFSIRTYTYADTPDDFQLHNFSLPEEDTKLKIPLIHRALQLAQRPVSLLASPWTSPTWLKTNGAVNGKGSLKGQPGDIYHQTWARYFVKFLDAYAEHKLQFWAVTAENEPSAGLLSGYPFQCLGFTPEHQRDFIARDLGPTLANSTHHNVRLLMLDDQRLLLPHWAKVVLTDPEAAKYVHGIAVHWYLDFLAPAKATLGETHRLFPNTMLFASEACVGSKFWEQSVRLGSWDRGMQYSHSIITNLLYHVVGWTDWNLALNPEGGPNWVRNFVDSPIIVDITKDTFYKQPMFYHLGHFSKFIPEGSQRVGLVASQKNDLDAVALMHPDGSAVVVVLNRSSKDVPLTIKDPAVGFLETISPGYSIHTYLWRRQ
Assay: activation of GCase in a live cell PFB assay in HELA cells
Format: cell-based
Description: Exemplary compounds were evaluated for activation of GCase in a live cell PFB assay in HELA cells (essentially as described in Ysselstein et al., “LRRK2 kinase activity regulates lysosomal glucocerebrosidase in neurons derived from Parkinson's disease patients” Nature Communications (2019) 10:5570). […] EC50 ranges: A: <10 μM; B: >10-50 μM; C: >50-100 μM; D: >100 μM.

[1] = activation of GCase, EC50 ranges

Structure (SMILES)	EC50 [1]	EC50 (EC50 given as range classes)
Cc1cc(N2CC3(CCN(c4ncc5c(C)nn(C6COC6)c5n4)C3)C2)nc(C)n1 [Cmpd 644]	10 to 50 µM	–
FC(F)(F)c1cc(N2CC3(CCN(c4ncc5cnn(C6COC6)c5n4)C3)C2)ccn1 [Cmpd 962]	10 to 50 µM	–
Cc1nc(C(F)(F)F)ncc1N1CC2(CCN(c3cnc4cnn(CC(F)F)c4n3)C2)C1 [Cmpd 957]	10 to 50 µM	–
CC(F)(F)Cn1ncc2ncc(N3CCC4(CN(c5ccnc(C(F)(F)F)c5)C4)C3)nc21 [Cmpd 1116]	10 to 50 µM	–
Cc1nc(N2CCC3(CC2)CCN(c2cnc4cnn(CC(F)(F)F)c4n2)C3)cc(C(F)(F)F)n1 [Cmpd 580]	–	10 to 50 µM
Cc1nc(N2CC3(CCN(c4nccc(-c5nncs5)n4)C3)C2)cc(C(F)(F)F)n1 [Cmpd 1131]	> 100 µM	–
CCn1c(N2CCC3(CC2)CC(=O)N(c2ccnc(C(F)(F)F)c2)C3)nc2c(cnn2CC(F)F)c1=O [Cmpd 1019]	–	< 10 µM
CCOc1nn(C2COC2)c2nc(N3CCC4(CN(c5ccnc(C(F)(F)F)c5)C4)C3)cnc12 [Cmpd 944]	< 10 µM	–
Cc1nn(CC(F)F)c2nc(N3CCC4(CN(c5ccnc(C(F)(F)F)c5)C4)C3)ncc12 [Cmpd 296]	< 10 µM	–
Cc1nc(N2CCC3(CCN(c4nc5c(cnn5CC(F)F)c(=O)n4CC4CC4)CC3)C2)cc(C(F)(F)F)n1 [Cmpd 1108]	< 10 µM	–
FC(F)(F)c1ncc(N2CCC3(CCN(c4cncc(-c5nncs5)n4)C3)C2)cn1 (centres unmarked) [Cmpd 532]	10 to 50 µM	–
Cc1nc(N2CCC3(CC2)CCN(c2cnc4cnn(C5COC5)c4n2)C3)cc(C(F)(F)F)n1 [Cmpd 583]	–	> 100 µM
CCOc1nn(CC(F)F)c2nc(N3CCC4(CN(c5cc(C(F)(F)F)nc(C)n5)C4)C3)cnc12 [Cmpd 935]	50 to 100 µM	–
COc1ccccc1C(=O)N1CC2(CCN(c3cnc4cnn(CC(F)F)c4n3)C2)C1 [Cmpd 391]	–	< 10 µM
Cc1nc(N2CC3(CCN(c4cnc5c(n4)n(C)c(=O)n5CC(F)F)C3)C2)cc(C(F)(F)F)n1 [Cmpd 1078]	< 10 µM	–
CCn1c(N2CCC3(CCN(c4ccnc(C(F)(F)F)c4)C3)C2)nc2c(cnn2CC(F)F)c1=O (centres unmarked) [Cmpd 1100]	10 to 50 µM	–
Cc1ncc(N2CCC3(CCN(c4ncc5c(C)nn(CC(F)(F)F)c5n4)C3)C2)c(C(F)(F)F)n1 (centres unmarked) [Cmpd 659]	10 to 50 µM	–

Structure (SMILES)	EC50 [1]	EC50 (EC50 given as range classes)
Cc1cn(-c2ccccc2)nc1C(=O)N1CCC2(CC1)CCN(c1cc(C(F)(F)F)ccn1)C2=O [Cmpd 270]	10 to 50 µM	–
CCc1nn(C2COC2)c2nc(N3CCC4(CN(c5cc(C(F)(F)F)nc(C)n5)C4)C3)ncc12 [Cmpd 1067]	< 10 µM	–
Cc1nc(N2CCC3(CCN(c4ncc5c(C)nn(C6COC6)c5n4)C3)C2)cc(C(F)(F)F)n1 (centres unmarked) [Cmpd 544]	10 to 50 µM	–
Cc1cc(N2CC3(CCN(c4cnc5c(C)nn(CC(C)(F)F)c5n4)C3)C2)nc(C(F)(F)F)n1 [Cmpd 1129]	< 10 µM	–
FC(F)(F)c1ccc(N2CCC3(CCN(c4nccn5cncc45)CC3)C2)cn1 [Cmpd 240]	50 to 100 µM	–
Cc1nn(CC(F)F)c2nc(N3CCC4(CCN(c5ccnc(C(F)(F)F)c5)C4)CC3)n(C)c(=O)c12 [Cmpd 1104]	10 to 50 µM	–
FC(F)Cn1ncc2ncc(NC3CCC4(CC3)CN(c3cccnc3C(F)(F)F)C4)nc21 [Compound 109, N-[1-(2,2-difluoroethyl)-1H-pyrazolo[3,4-b]pyrazin-6-yl]-2-[2-(trifluoromethyl)pyridin-3-yl]-2-azaspiro[3.5]nonan-7-amine]	10 to 50 µM	–
Cc1ncc(N2CC3(CCN(c4cnc5cnn([C@H]6CCOC6)c5n4)C3)C2)c(C(F)(F)F)n1 [Cmpd 652]	> 100 µM	–
CCc1csc(CN2CC3(CCN(c4cnc5cnn(CC(F)F)c5n4)CC3)CC2=O)n1 [Cmpd 367]	10 to 50 µM	–
Fc1ccc(N2CCC3(CCN(c4cnc5cnn(CC(F)F)c5n4)CC3)C2)c(F)c1 [Cmpd 730]	10 to 50 µM	–
Cc1nn(CC(F)F)c2nc(N3CCC4(CCN(c5cnc(C(F)(F)F)nc5)C4)C3)cnc12 (centres unmarked) [Cmpd 530]	< 10 µM	–
Cc1nc(N2CCC3(CCN(c4ncc5c(C)nn(CC(F)(F)F)c5n4)C3)C2)cc(C(F)(F)F)n1 (centres unmarked) [Cmpd 616]	–	10 to 50 µM
Cc1cc(N2CC3(CCN(c4cnc5cnn([C@H]6CCOC6)c5n4)C3)C2)nc(C(F)(F)F)n1 [Cmpd 1146]	10 to 50 µM	–
FC(F)Cn1ncc2cnc(N3CCC4(C3)CN(c3nnc(C(F)(F)F)s3)C4)nc21 [Cmpd 1051]	50 to 100 µM	–
CCc1ncc(N2CCC3(CCN(c4cnc5cnn(CC(F)F)c5n4)CC3)C2)cn1 [Cmpd 760]	< 10 µM	–
FC(F)c1ccc(N2CCCC3(C2)CN(c2cnc4cnn(CC(F)(F)F)c4n2)C3)cn1 [Compound 158, 6-[6-(difluoromethyl)pyridin-3-yl]-2-[1-(2,2,2-trifluoroethyl)-1H-pyrazolo[3,4-b]pyrazin-6-yl]-2,6-diazaspiro[3.5]nonane]	> 100 µM	–
Cc1nn(CC(F)F)c2nc(N3CCC4(CCN(c5cnc(C(F)(F)F)nc5)C4)CC3)cnc12 [Cmpd 829]	–	< 10 µM

More lines, now with the values ahead:

EC50 [1]	EC50 (EC50 given as range classes)	Structure (SMILES)
< 10 µM	–	O=C1N(c2cc(C(F)(F)F)ccn2)CCC12CCN(c1cnc3cnn(CC(F)(F)F)c3n1)CC2 [Compound 142, 8-[1-(2,2,2-trifluoroethyl)-1H-pyrazolo[3,4-b]pyrazin-6-yl]-2-[4-(trifluoromethyl)pyridin-2-yl]-2,8-diazaspiro[4.5]decan-1-one]
< 10 µM	–	O=C1CC2(CCN(c3cnc4cnn(CC(F)F)c4n3)CC2)CN1c1ccc(C(F)(F)F)cc1F [Cmpd 729]
< 10 µM	–	FC(F)Cn1ncc2ncc(N3CCC4(CC3)CC(Oc3ccncc3C(F)(F)F)C4)nc21 [Cmpd 706]
10 to 50 µM	–	CCN1C(=O)N(c2ccc(C(F)(F)F)nc2)C(=O)C12CCN(c1cnc3c(C)nn(CC(F)F)c3n1)CC2 [Cmpd 871]
–	10 to 50 µM	FC(F)Cn1ncc2ncc(N3CCC4(CN(c5cccc(OCC(F)(F)F)n5)C4)C3)nc21 [Cmpd 409]
–	< 10 µM	O=S(=O)(c1cncc(C(F)(F)F)c1)N1CC2(CCN(c3cnc4cnn(CC(F)F)c4n3)C2)C1 [Cmpd 413]
10 to 50 µM	–	FC(F)Cn1ncc2ncc(N3CC[C@@]4(CCN(c5cnc(C(F)(F)F)nc5)C4)C3)nc21 [Cmpd 1132]
–	10 to 50 µM	FC(F)Cn1ncc2ncc(N3CCC4(CC3)CC(Nc3ccc(C(F)(F)F)cn3)C4)nc21 [Cmpd 227]
10 to 50 µM	–	FC(F)Cn1ncc2ncc(N3CCC4(CC3)CC(COc3cc(C(F)(F)F)ccn3)C4)nc21 [Cmpd 697]
–	10 to 50 µM	O=C1CC2(CCN(c3cnc4cnn(CC(F)F)c4n3)CC2)CN1Cc1ccc(F)cn1 [Cmpd 397]
< 10 µM	–	COc1nc2cnn(CC(F)F)c2nc1N1CCC2(CC1)CC(=O)N(c1ccc(C(F)(F)F)nc1)C2 [Cmpd 836]
10 to 50 µM	–	CCN1C(=O)N(c2ccnc(C(F)(F)F)n2)C(=O)C12CCN(c1cnc3cnn(CC(F)F)c3n1)CC2 [Cmpd 906]
10 to 50 µM	–	O=C1CC2(CCN(c3cnc4cnn(CC(F)F)c4n3)CC2)CN1c1ccc(C(F)(F)F)nc1 [Cmpd 680]
< 10 µM	–	FC(F)Cn1ncc2ncc(N3CC4(CCCN(c5cccnc5C(F)(F)F)C4)C3)nc21 [Compound 9, 2-[1-(2,2-difluoroethyl)-1H-pyrazolo[3,4-b]pyrazin-6-yl]-6-[2-(trifluoromethyl)pyridin-3-yl]-2,6-diazaspiro[3.5]nonane]
–	10 to 50 µM	FC(F)Cn1ncc2ncc(N3CCC4(CC3)CC(Nc3ccnc(C(F)(F)F)c3)C4)nc21 [Cmpd 229]
> 100 µM	–	O=C(c1ccc(C(F)(F)F)cn1)N1CCC2(CCN(c3cnc4cnn(CC(F)F)c4n3)CC2)C1 [Cmpd 314]
10 to 50 µM	–	O=C1CC2(CCN(c3cnc4cnn(CC(F)F)c4n3)CC2)CN1Cc1cnc(C(F)(F)F)cn1 [Cmpd 930]
< 10 µM	–	FC(F)Cn1ncc2ncc(N3CCC4(CC3)CCN(c3ccncc3C(F)(F)F)C4)nc21 [Compound 156, 8-[1-(2,2-difluoroethyl)-1H-pyrazolo[3,4-b]pyrazin-6-yl]-2-[3-(trifluoromethyl)pyridin-4-yl]-2,8-diazaspiro[4.5]decane]
< 10 µM	–	O=C1N(c2ccc(C(F)(F)F)nc2)CC(c2ccccc2)C12CCN(c1cnc3cnn(CC(F)F)c3n1)CC2 (centres unmarked) [Cmpd 247]
< 10 µM	–	FC(F)Cn1ncc2ncc(N3CCC4(CC3)CN(c3cc(C(F)(F)F)ccn3)C4)nc21 [Compound 1, 7-[1-(2,2-difluoroethyl)-1H-pyrazolo[3,4-b]pyrazin-6-yl]-2-[4-(trifluoromethyl)pyridin-2-yl]-2,7-diazaspiro[3.5]nonane]
–	10 to 50 µM	FC(F)Cn1ncc2ncc(N3CCCC4(CCN(c5cccc(C(F)(F)F)n5)CC4)C3)nc21 [Cmpd 219]
–	< 10 µM	O=C1CC2(CCN(c3cnc4cnn(CC(F)F)c4n3)C2)CCN1c1cncc(C(F)(F)F)c1 (centres unmarked) [Cmpd 795]
> 100 µM	–	COc1cc(N2CCC3(CCN(c4cnc5cnn(CC(F)F)c5n4)CC3)C2=O)nc(C(F)(F)F)c1 [Cmpd 665]
–	> 100 µM	FC(F)Cn1ncc2ncc(NC3CCC4(CCN(c5cc(C(F)(F)F)ccn5)CC4)C3)nc21 (centres unmarked) [Cmpd 196]
< 10 µM	–	O=C1N(c2cc(C(F)(F)F)ccn2)C(=O)C2(CCN(c3cnc4cnn(CC(F)F)c4n3)CC2)N1Cc1cc(F)ccc1F [Cmpd 718]
